Experimental data published in patent US20160122340A1, “HISTONE DEACETYLASE INHIBITORS BASED ON DERIVATIVES OF TRICYCLIC POLYHYDROACRIDINE AND ANALOGS POSSESSING FUSED SATURATED FIVE-AND-SEVEN-MEMBERED RINGS” (QUIMATRYX, S.L., priority 2013, published 2016).

Tests used:
[1] = target: T1, Human HDAC1 (Homo sapiens, UniProt Q13547); experiment: In vitro HDAC1 inhibition, fluorogenic peptide substrate; type: biochemical; conditions: read-out: IC50 (μM) HDAC-1
T1 construct: Full length with C-terminal GST tag, MW=79.9 kDa; GST (C); purchased BioMol SE-456; host or cells: baculovirus / Sf9 cells
Procedure: (§1) In Vitro Inhibitory Activity of Histone Deacetylase: Human Isoforms HDAC1, 2, 3, 4, 5, 6, 7, 8, 9, 10 and 11 and HeLa Cell Line Nuclear Extract (IC50 Data)
(§2) All HDAC assays were performed using acetylated AMC-labeled peptide substrate: • Substrate for isoforms HDAC1, 2, 3, 6, 10, 11 and HeLa nuclear extract assays: Acetylated fluorogenic peptide from p53 residues 379-382 (RHKKAc). • Substrate for isoforms HDAC 4, 5, 7, 9: Fluorogenic Boc-L-Lys(ε-trifluoroacetyl)-AMC. • Substrate for HDAC8 assays: Acetylated fluorogenic peptide from p53 residues 379-382 (RHKAcKAc).
(§3) 50 μM of substrate peptide (see ‘substrate peptides’ section above) and an optimal concentration of the corresponding enzyme (see ‘enzymes’ section above) in the assay buffer and 1% final concentration of DMSO were incubated in the presence of gradient concentrations of inhibitors (10-dose IC50 mode with 3-fold serial dilution) at 30° C. for 2 h. The reactions were carried out in a 96-well microplate for fluorometry in a 50 μl reaction volume. After the deacetylation reaction, Fluor-de-Lys-Developer (BioMol Cat. # KI-105) was added to each well to digest the deacetylated substrate, thus producing the fluorescent signal. The reaction was allowed to develop for 45 minutes at 30° C. with 5% CO2; then the fluorescent signal was measured with an excitation wavelength at 360 nm and an emission wavelength at 460 nm in a microplate-reading fluorometer (GeminiXS; Molecular Devices, Sunnyvale, Calif.). A curve of Deacetylated Standard (Biomol, Cat. # KI-142; made from 100 μM with 1:2 dilution and 10-doses, 6 μl) allowed the conversion of fluorescent signal into micromoles of deacetylated product. All experiments were performed in triplicate. IC50 was calculated by fitting the experimental data to a dose-response curve. DMSO was used as negative control; Trichostatin A (Biomol Cat. # GR-309) was used as positive control inhibitor.

[2] = target: T2, Human HDAC2 (Homo sapiens, UniProt Q92769); experiment: In vitro HDAC2 inhibition, fluorogenic peptide substrate; type: biochemical; conditions: read-out: IC50 (μM) HDAC-2
T2 construct: Full length with C-terminal His tag, MW=60 kDa; His (C); purchased BioMol SE-500; host or cells: baculovirus / Sf9 cells
Procedure: as §1, §2, §3

[3] = target: T3, Human HDAC4 (Homo sapiens, UniProt P56524); experiment: In vitro HDAC4 inhibition, fluorogenic substrate; type: biochemical; conditions: read-out: IC50 (μM) HDAC-4
T3 construct: Amino acids 627-1085 with N-terminal GST tag, MW=75.2 kDa; GST (N); purchased BioMol, Hamburg, Germany; host or cells: baculovirus expression system
Procedure: as §1, §2, §3

[4] = target: T4, Human HDAC5 (Homo sapiens, UniProt Q9UQL6); experiment: In vitro HDAC5 inhibition, fluorogenic substrate; type: biochemical; conditions: read-out: IC50 (μM) HDAC-5
T4 construct: Full length with Nterminal GST tag, MW=150 kDa; GST (N); purchased BioMol, Hamburg, Germany; host or cells: baculovirus / Sf9 cells
Procedure: as §1, §2, §3

[5] = target: T5, Human HDAC7 (Homo sapiens, UniProt Q8WUI4); experiment: In vitro HDAC7 inhibition, fluorogenic substrate; type: biochemical; conditions: read-out: IC50 (μM) HDAC-7
T5 construct: Amino acids 518-end with N-terminal GST tag, MW=78 kDa; GST (N); purchased BioMol, Hamburg, Germany; host or cells: baculovirus expression system
T5 sequence (Q8WUI4 518-952 limits assumed): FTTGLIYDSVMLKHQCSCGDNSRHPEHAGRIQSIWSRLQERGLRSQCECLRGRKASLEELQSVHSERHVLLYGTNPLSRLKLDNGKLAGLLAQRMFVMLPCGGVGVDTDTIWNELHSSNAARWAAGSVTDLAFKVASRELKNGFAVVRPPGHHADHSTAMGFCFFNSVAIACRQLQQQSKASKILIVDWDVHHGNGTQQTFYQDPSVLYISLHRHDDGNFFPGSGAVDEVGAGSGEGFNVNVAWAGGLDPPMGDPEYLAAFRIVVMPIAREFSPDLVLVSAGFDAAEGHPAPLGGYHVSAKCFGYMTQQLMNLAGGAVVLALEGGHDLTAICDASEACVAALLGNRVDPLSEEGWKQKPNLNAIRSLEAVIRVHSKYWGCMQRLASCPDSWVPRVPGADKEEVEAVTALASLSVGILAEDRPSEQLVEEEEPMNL
Procedure: as §1, §2, §3

[6] = target: T6, Human HDAC8 (Homo sapiens, UniProt Q9BY41); experiment: In vitro HDAC8 inhibition, fluorogenic peptide substrate; type: biochemical; conditions: read-out: IC50 (μM) HDAC-8
T6 construct: Full length, MW=42 kDa, expressed in an E. coli expression system; purchased BioMol SE-145; host or cells: E. coli
T6 sequence (Q9BY41 1-377): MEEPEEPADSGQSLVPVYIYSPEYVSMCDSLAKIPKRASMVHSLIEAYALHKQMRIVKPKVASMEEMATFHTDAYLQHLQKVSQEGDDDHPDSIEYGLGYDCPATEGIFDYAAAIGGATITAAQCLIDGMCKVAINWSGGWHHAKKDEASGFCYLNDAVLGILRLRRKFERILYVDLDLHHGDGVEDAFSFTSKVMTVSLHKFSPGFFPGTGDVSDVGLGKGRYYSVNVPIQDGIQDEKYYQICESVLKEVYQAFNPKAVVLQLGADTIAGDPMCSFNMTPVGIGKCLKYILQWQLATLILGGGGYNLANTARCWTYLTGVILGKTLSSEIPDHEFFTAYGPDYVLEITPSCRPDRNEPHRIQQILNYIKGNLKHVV
Procedure: as §1, §2, §3

[7] = system: T7, Nuclear Extract from HeLa Cells; experiment: HeLa nuclear extract HDAC activity inhibition; type: biochemical, human
T7 construct: 25 ng/μl Nuclear Extract from HeLa Cells: Prepared by high salt extraction of HeLa nuclei (human cervical cancer cell line)
Procedure: as §1, §2
as §3, with “50 μM of substrate peptide (see ‘substrate peptides’ section above) and an optimal concentration of the corresponding enzyme (see ‘enzymes’ section above) in the assay buffer and 1% final concentration of DMSO were incubated in the presence of gradient concentrations of inhibitors (10-dose IC50 mode with 3-fold serial dilution) at 30° C. for 2 h.” left out

T4 sequence (Q9UQL6 1-1123 isoform Q9UQL6-3): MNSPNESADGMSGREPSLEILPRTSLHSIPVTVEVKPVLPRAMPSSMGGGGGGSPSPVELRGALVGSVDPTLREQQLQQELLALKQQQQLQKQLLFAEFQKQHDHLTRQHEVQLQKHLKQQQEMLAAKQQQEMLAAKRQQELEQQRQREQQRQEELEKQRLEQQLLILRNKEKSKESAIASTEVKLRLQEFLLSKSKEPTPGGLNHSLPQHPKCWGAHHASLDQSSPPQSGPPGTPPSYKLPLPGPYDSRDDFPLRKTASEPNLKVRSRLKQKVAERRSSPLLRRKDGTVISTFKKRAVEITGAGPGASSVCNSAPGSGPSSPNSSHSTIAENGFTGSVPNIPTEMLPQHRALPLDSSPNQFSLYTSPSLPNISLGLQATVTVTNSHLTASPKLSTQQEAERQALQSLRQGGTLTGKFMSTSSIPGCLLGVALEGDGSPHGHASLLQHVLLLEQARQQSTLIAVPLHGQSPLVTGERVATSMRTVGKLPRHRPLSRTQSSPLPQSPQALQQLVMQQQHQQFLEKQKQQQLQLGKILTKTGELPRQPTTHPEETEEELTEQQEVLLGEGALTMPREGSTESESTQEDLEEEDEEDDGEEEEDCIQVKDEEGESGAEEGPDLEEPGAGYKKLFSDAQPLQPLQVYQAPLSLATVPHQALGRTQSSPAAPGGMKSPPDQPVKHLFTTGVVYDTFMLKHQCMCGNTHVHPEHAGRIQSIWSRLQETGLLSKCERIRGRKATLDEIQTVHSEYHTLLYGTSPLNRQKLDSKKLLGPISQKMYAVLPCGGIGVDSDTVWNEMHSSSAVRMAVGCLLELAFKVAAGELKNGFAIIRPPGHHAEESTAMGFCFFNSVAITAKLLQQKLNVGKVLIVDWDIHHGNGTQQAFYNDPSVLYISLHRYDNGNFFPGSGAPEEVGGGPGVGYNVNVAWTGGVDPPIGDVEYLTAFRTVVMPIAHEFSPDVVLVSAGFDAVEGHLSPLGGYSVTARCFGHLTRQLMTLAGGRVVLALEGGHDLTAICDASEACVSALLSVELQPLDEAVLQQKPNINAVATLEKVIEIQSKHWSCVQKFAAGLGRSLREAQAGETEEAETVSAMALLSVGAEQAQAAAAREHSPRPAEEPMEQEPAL
T3 sequence (P56524 627-1084 limits assumed): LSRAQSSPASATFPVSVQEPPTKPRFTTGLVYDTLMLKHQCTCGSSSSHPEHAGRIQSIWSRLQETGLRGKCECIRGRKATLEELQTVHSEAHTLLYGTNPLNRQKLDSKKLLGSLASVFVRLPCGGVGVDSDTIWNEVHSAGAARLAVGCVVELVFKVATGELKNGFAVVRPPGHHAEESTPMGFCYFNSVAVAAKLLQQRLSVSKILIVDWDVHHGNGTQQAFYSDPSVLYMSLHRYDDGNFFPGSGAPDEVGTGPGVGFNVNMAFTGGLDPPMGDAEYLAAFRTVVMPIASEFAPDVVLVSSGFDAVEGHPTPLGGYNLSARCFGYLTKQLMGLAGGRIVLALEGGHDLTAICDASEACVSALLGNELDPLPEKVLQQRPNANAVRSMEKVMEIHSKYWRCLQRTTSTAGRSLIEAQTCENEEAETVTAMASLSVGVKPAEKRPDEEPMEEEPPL
T2 sequence (Q92769 whole entry): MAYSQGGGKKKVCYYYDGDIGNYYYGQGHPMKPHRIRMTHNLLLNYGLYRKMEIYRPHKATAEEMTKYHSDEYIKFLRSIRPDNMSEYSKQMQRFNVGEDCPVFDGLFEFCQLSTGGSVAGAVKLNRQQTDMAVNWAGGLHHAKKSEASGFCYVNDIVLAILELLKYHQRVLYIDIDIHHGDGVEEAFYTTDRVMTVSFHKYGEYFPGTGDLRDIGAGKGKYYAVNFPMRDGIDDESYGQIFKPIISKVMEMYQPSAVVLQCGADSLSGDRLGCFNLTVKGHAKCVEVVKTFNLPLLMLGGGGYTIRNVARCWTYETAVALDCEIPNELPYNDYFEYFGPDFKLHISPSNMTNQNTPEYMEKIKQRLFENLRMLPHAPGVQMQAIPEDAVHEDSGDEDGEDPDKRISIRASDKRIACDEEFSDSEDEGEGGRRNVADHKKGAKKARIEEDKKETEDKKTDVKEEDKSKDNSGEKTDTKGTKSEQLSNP
T1 sequence (Q13547 whole entry): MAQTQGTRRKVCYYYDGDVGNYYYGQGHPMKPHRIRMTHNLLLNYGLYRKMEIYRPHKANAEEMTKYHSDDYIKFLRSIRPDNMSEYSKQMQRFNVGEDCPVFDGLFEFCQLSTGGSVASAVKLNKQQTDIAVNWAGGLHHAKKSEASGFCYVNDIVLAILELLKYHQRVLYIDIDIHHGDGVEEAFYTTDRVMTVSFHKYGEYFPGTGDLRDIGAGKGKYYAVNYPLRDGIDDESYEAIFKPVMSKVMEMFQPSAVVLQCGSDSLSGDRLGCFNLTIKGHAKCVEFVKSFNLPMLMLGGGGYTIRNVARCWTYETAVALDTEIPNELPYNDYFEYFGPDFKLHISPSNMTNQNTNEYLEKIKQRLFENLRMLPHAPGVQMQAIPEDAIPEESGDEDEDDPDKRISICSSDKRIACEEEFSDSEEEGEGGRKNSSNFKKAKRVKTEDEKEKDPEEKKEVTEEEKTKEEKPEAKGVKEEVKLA

IC50 [1] [µM]	IC50 [2] [µM]	IC50 [3] [µM]	IC50 [4] [µM]	IC50 [5] [µM]	IC50 [6] [µM]	IC50 [7] [µM]	Compound
2.95	8.48	> 5	4.24	> 5	0.21	0.42	O=C(CCCCCCNC(=O)c1c2c(nc3ccccc13)CCCC2)NO [Example 11, N-[7-(hydroxyamino)-7-oxoheptyl]-1,2,3,4-tetrahydroacridine-9-carboxamide]
0.9	1.84	> 5	> 5	> 5	1.52	0.033	COc1cccc2c(NCCCCCCC(=O)NO)c3c(nc12)CCCC3 [Example 5, N-hydroxy-7-[(5-methoxy-1,2,3,4-tetrahydroacridin-9-yl)amino]heptanamide]
> 5	> 5	> 5	> 5	> 5	–	0.85	O=C(CCCCCNC(=O)c1c2c(nc3ccccc13)CCCC2)NO [Example 10, N-[6-(hydroxyamino)-6-oxohexyl]-1,2,3,4-tetrahydroacridine-9-carboxamide]
1.12	2.41	> 5	> 5	> 5	1.09	0.095	O=C(CCCCCCNc1c2c(nc3cnccc13)CCCC2)NO [Example 8, N-hydroxy-7-[(6,7,8,9-tetrahydrobenzo[b][1,7]naphthyridin-5-yl)amino]heptanamide]
0.27	0.77	> 5	> 5	> 5	1.28	0.019	O=C(CCCCCCNc1c2c(nc3ccccc13)CCC2)NO [Example 3, 7-[(2,3-dihydro-1H-cyclopenta[b]quinolin-9-yl)amino]-N-hydroxyheptanamide]
0.84	1.92	> 5	> 5	> 5	0.84	0.038	O=C(CCCCCCNc1c2c(nc3ccccc13)CCCCC2)NO [Example 4, N-hydroxy-7-[(7,8,9,10-tetrahydro-6H-cyclohepta[b]quinolin-11-yl)amino]heptanamide]
2.99	6.09	6.19	2.14	4.55	0.59	0.066	O=C(CCCCCNc1c2c(nc3ccccc13)CCCC2)NO [Example 1, N-hydroxy-6-[(1,2,3,4-tetrahydroacridin-9-yl)amino]hexanamide]
1.77	4.46	> 5	> 5	> 5	1.44	0.12	O=C(CCCCCCNc1c2c(nc3ncccc13)CCCC2)NO [Example 7, N-hydroxy-7-[(6,7,8,9-tetrahydrobenzo[b][1,8]naphthyridin-5-yl)amino]heptanamide]
0.36	0.75	> 5	0.44	0.77	0.53	0.023	O=C(CCCCCCNc1c2c(nc3ccccc13)CCCC2)NO [Example 2, N-hydroxy-7-[(1,2,3,4-tetrahydroacridin-9-yl)amino]heptanamide]
